From patent US9938271B2, “Inhibitors of human immunodeficiency virus replication” (VIIV HEALTHCARE UK (NO. 5) LIMITED, priority 2014, dated 2018) come the findings set out here.

The first test concerns NL-RLuc virus (recombinant HIV NL4-3 with Renilla Luciferase gene) in MT-2 cells. The experiment in a line: Inhibition of HIV replication (NL-RLuc luciferase reporter virus in MT-2 cells). It counts as cell-based. The note with it: MT2, 120 h, MT-2 cells infected with NL-RLuc virus, 5 days of incubation, luciferase readout, 10% FBS. An excerpt: Inhibition of HIV Replication:
A recombinant NL-RLuc proviral clone was constructed in which a section of the nef gene from NL4-3 was replaced with the Renilla Luciferase gene. This virus is fully infectious and can undergo multiple cycles of replication in cell culture. In addition, the luciferous reporter provides a simple and easy method for quantitating the extent of virus growth and consequently, the antiviral activity of test compounds. The plasmid pNLRLuc contains the proviral NL-Rluc DNA cloned into pUC 18 at the PvuII site. The NL-RLuc virus was prepared by transfection of 293T cells with the plasmid pNLRLuc. Transfections were performed using the LipofectAMINE PLUS kit from Invitrogen (Carlsbad, Calif.) according to the manufacturer and the virus generated was titered in MT-2 cells. For susceptibility analyses, the titrated virus was used to infect MT-2 cells in the presence of compound, and after 5 days of incubation, cells were processed and quantitated for virus growth by the amount of expressed luciferase. Assay media was RPMI 1640 supplemented with 10% heat inactivated fetal bovine serum (FBS), 100 units/ml penicillin G/100 units/ml streptomycin, 10 mM HEPES buffer pH 7.55 and 2 mM L-glutamine. The results from at least 2 experiments were used to calculate the EC50 values. Luciferase was quantitated using the Dual Luciferase kit from Promega (Madison, Wis.). Susceptibility of viruses to compounds was determined by incubation in the presence of serial dilutions of the compound. The 50% effective concentration (EC50) was calculated by using the exponential form of the median effect equation where (Fa)=1/[1+(ED50/drug conc.)^m] (Johnson V A, Byington R T. Infectivity Assay. In Techniques in HIV Research. ed. Aldovini A, Walker B D. 71-76. New York: Stockton Press. 1990). Activity equal to A refers to a compound having an EC50≤100 nM, while B and C denote compounds having an EC50 between 100 nM and 1 uM (B) or >1 uM (C).
(In general: Reporter assays use an easily measured gene product as a stand-in for the process of interest.)
By EC50 is commonly meant the concentration needed to bring the measured effect to its halfway point. As for `Cc1cn2cc(-c3cccc(-c4ccccc4F)c3)nc2c(-c2ccccc2F)c1[C@H](OC(C)(C)C)C(=O)O` [Example 4, (2S)-2-(tert-Butoxy)-2-(2-(2′-fluoro-[1,1′-biphenyl]-3-yl)-8-(2-fluorophenyl)-6-methylimidazo[1,2-a]pyridin-7-yl)acetic acid], the half-maximal effective concentration (EC50) is 265 nM.
`Cc1cn2c(C(C)(C)C)c3nc2c(c1[C@H](OC(C)(C)C)C(=O)O)N1CCC(C)(CC1)OCCCC[C@H](C)Oc1cc(F)ccc1-c1cccc-3c1` [Example 10, (2S)-2-(tert-Butoxy)-2-[(22S)-34-tert-butyl-18-fluoro-4,22,28-trimethyl-21,27-dioxa-1,6,8-triazahexacyclo[26.2.2.1^6,9.1^10,14.0^2,7.0^15,20]tetratriaconta-2,4,7,9 (34),10(33),11,13,15,17,19-decaen-3-yl]acetic acid]: the EC50 came to 148 nM.
On the same count and under the same terms, the value for `Cc1cn2cc3nc2c(c1[C@H](OC(C)(C)C)C(=O)O)N1CCC(C)(CC1)OCCCC[C@H](C)Oc1cc(F)ccc1-c1cccc-3c1` [Example 9, (2S)-2-(tert-Butoxy)-2-[(22S)-18-fluoro-4,22,28-trimethyl-21,27-dioxa-1,6,8-triazahexacyclo[26.2.2.1^6,9.1^10,14.0^2,7.0^15,20]tetratriaconta-2,4,7,9(34),10(33),11,13,15,17,19-decaen-3-yl]acetic acid] was 36 nM; that for `Cc1cn2cc(-c3cccc(-c4ccccc4F)c3)nc2c(-c2ccc3c(c2)CCCO3)c1[C@H](OC(C)(C)C)C(=O)O` [Example 7, (S)-2-(tert-Butoxy)-2-(8-(chroman-6-yl)-2-(2′-fluoro[1,1′-biphenyl]-3-yl)-6-methylimidazo[1,2-a]pyridin-7-yl)acetic acid] was 19 nM; that for `Cc1cn2cc(-c3cccc(-c4ccc(F)c(F)c4F)c3)nc2c(-c2ccc3c(c2)CCCO3)c1[C@H](OC(C)(C)C)C(=O)O` [Example 8, (S)-2-(tert-Butoxy)-2-(8-(chroman-6-yl)-6-methyl-2-(2′,3′,4′-trifluoro-[1,1′-biphenyl]-3-yl)imidazo[1,2-a]pyridin-7-yl)acetic acid] was 10 nM.
Same read-out and setting: the value for `Cc1cn2cc(-c3cccc(-c4ccccc4F)c3)nc2c(-c2cc(F)c3c(c2C)CCCO3)c1[C@H](OC(C)(C)C)C(=O)O` [Example 3, (2S)-2-(tert-Butoxy)-2-(8-(8-fluoro-5-methylchroman-6-yl)-2-(2′-fluoro-[1,1′-biphenyl]-3-yl)-6-methylimidazo[1,2-a]pyridin-7-yl)acetic acid] was 11 nM.

Still in this test, the particulars now being: {}.
As to `Cc1cn2cc(-c3cccc(-c4ccc(F)cc4)c3)nc2c(-c2cc(F)c3c(c2C)CCCO3)c1[C@H](OC(C)(C)C)C(=O)O` (single isomer, unassigned) [Example 2], the EC50 was 187 nM.
`Cc1ccccc1-c1cccc(-c2cn3cc(C)c([C@H](OC(C)(C)C)C(=O)O)c(-c4cc(F)c5c(c4C)CCCO5)c3n2)c1` (single isomer, unassigned) [Example 6]: the EC50 was 560 nM.
On to `Cc1cn2cc(-c3cccc(-c4ccc(F)cc4)c3)nc2c(-c2cc(F)c3c(c2C)CCCO3)c1[C@H](OC(C)(C)C)C(=O)O` (single isomer, unassigned) [Example 1], for which the EC50 is 16 nM.
Still for that read-out and setting: the value for `Cc1ccccc1-c1cccc(-c2cn3cc(C)c([C@H](OC(C)(C)C)C(=O)O)c(-c4cc(F)c5c(c4C)CCCO5)c3n2)c1` (single isomer, unassigned) [Example 5] was 34 nM.
